For one data set, the target named is T1, mouse NPC1L1 (Mus musculus, UniProt Q6T3U4, N476K).
T1 construct: expressed in transfected cells
As to the kind of experiment: Fluorescence NPC1L1 binding assay, HEK-293 cells, fluorescent compound 2 as ligand. As to the method: (§1) Cell Culture and Membrane Preparation. Each plasmid pCR3.1 harboring NPC1L1 was prepared using standard molecular biology protocols. Stable cell lines expressing human, rhesus monkey, mouse, rat, hamster, canine or rabbit NPC1L1 were generated using Lipofectamine 2000 transfection reagent in HEK-293 cells according to the manufacturer's protocol. Cells were maintained in DMEM supplemented with 10% FBS, 100 U/ml pen/strep, and 500 μg/ml geneticin at 37° C., 5% CO2. All cell culture reagents were obtained from Invitrogen Life Technologies, (Carlsbad, Calif.). Cell membranes were prepared by lysing cells in 5 mM HEPES with protease inhibitors (Complete™ Protease Inhibitor Cocktail Tablets; Roche Diagnostics Corp., Indianapolis Ind.) for 15 min at 4° C. A membrane pellet was obtained by centrifuging the cell lysates at 12,000×g for 25 min. The membranes were resuspended in 5 mM HEPES with protease inhibitors and triturated with a 21G needle.
(§2) Fluorescence. Cells were plated into 384-well black/clear plates (BD Biosciences, Bedford Mass.) for binding experiments the following day. The media was aspirated. […] Media (20 μl) containing the indicated concentration of compound was then added to the wells. […] The binding reaction was allowed to proceed for 4 hours at 37° C. Subsequently the media was aspirated and the cells washed once with PBS.
In an effort to show binding to mouse NPC1L1, several related ezetimibe analogs were examined as possible alternatives to fluorescently-labeled (BODIPY) ezetimibe glucuronide (compound 1) in the binding assay. Compound 2, which is a fluorescently labeled synthetic precursor for fluorescently-labeled (BODIPY) ezetimibe glucuronide (compound 1; Burnett et al., Bioorganic and Medicinal Chemistry Letters 12:315-318 (2002)), was identified as a viable option for detection of mouse NPC1L1 binding. Compound 2 contains a methyl ester substitution for the carboxylic acid on the glucuronide portion of the molecule (compound structures shown in FIG. 4A).

For data set [1], the system named is plasma and liver cholesterol. As to the kind of experiment: Percent cholesterol lowering in plasma and liver. Format: in vivo. Particulars: hamster.
Another data set relates to cholesterol. Description: In vivo cholesterol lowering activity.
For data set [2], the system named is NPC1L1 orthologs of multiple species. Description: Binding to NPC1L1 orthologs of multiple species. The following applies: NPC1L1 orthologs of the species tested. On the procedure: as §1, §2
In another data set the target is T2, rat NPC1L1 (Rattus norvegicus, UniProt Q6T3U3, A349V/E317P/G318E/K324N/L297S).
T2 construct: expressed in transfected cells
Description: Fluorescence NPC1L1 binding assay, HEK-293 cells, BODIPY-labeled compound 1. On the procedure: as §1, §2

The target in the next data set is T3, human NPC1L1 (Homo sapiens, UniProt Q9UHC9, T1073A).
T3 construct: expressed in transfected cells
T3 sequence (Q9UHC9 22-1332 isoform Q9UHC9-2 T1046A): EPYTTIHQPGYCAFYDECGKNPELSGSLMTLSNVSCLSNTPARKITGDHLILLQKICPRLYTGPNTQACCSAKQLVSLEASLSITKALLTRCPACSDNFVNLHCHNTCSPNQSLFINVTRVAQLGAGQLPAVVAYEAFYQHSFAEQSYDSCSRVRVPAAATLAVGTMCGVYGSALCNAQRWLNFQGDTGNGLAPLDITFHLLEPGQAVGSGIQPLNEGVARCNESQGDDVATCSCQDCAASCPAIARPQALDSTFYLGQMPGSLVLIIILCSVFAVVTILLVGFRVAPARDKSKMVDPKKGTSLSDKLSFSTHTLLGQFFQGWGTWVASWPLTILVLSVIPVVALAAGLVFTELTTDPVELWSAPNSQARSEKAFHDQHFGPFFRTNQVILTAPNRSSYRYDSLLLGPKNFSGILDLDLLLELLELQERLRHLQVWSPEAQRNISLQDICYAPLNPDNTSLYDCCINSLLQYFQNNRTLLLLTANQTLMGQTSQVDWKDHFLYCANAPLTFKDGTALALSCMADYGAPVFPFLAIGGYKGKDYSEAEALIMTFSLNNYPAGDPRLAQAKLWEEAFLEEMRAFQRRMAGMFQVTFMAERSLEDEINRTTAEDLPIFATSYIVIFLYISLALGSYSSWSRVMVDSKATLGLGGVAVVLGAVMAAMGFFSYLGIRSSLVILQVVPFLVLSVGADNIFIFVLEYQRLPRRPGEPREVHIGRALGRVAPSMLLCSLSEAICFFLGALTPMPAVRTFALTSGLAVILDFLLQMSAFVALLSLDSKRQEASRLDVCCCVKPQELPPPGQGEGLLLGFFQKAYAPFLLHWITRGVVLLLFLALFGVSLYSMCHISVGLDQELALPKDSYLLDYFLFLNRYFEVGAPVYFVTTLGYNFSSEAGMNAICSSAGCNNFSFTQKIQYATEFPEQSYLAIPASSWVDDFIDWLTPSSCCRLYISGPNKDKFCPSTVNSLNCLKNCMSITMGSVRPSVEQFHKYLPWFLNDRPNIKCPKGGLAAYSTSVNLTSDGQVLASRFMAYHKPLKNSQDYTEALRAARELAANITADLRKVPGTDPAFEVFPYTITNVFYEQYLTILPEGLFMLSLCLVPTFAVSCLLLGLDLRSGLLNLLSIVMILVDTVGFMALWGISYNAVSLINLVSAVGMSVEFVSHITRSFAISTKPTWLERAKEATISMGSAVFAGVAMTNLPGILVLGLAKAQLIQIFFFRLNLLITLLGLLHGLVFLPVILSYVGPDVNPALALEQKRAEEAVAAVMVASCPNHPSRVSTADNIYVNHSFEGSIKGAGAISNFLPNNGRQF
The description is as above. On the procedure: as §1, §2

Another data set concerns the target canine NPC1L1 (Canis lupus familiaris, UniProt A0MJA4). Described as above. As to the method: as §1, §2
Another data set addresses rabbit NPC1L1 (Oryctolagus cuniculus, UniProt A0MJA7). The data set is described as above. On the procedure:
as §1, §2

A further data set deals with hamster NPC1L1 (Mesocricetus auratus, UniProt A0MJA8). The data set is described as above. As to the method: as §1, §2
In another data set the target is monkey NPC1L1 (Macaca mulatta, UniProt A0MJA5). The data set is described as above. Set-up: species or system rhesus monkey. As to the method:
as §1, §2

The subject of data set [3] is ^14C-cholesterol absorption. Description: Acute cholesterol absorption assay. Format: in vivo. The following applies: intraduodenal. As to the method:
Acute cholesterol absorption assay. ^14C-cholesterol absorption was determined acutely in rats using conditions previously described (Van Heek et al., J. Pharmacol. Exp. Ther. 283: 157-163 (1997)). Compounds were dissolved in rat bile and delivered (1.0 ml) intraduodenally by bolus injection via an intestinal catheter, followed by 1.0 ml saline rinse (0.9%). Following a 30 min incubation, a cholesterol emulsion containing 3 mg cholesterol and 2 μCi ^14C-cholesterol (3 ml) was delivered to each rat as a bolus via intestinal catheter, followed by 1 ml saline rinse. Animals were sacrificed 90 min later and ^14C-cholesterol levels in plasma, liver, intestinal contents, and intestinal wall were determined.

Data set [4] relates to cholesterol absorption. As to the kind of experiment: In vivo potency of ezetimibe (ED50). Particulars: Rat.
Data set [5] has as its system cholesterol absorption. As to the kind of experiment: In vivo potency of ezetimibe (ED50). Particulars: Canis lupus familiaris, Canine.
The conditions of data set [6]: intraduodenal delivery, first pass metabolism in the intestine; cited from earlier work.
Data set [7] relates to cholesterol absorption. Description: In vivo potency of ezetimibe (ED50). Particulars: Mouse.
The test system of data set [8] is cholesterol absorption. As to the kind of experiment: In vivo potency of ezetimibe (ED50). Particulars: Primates, Monkey.
In data set [9] the test system is cholesterol absorption. As to the kind of experiment: In vivo potency of ezetimibe (ED50). The following applies: Mesocricetus auratus, Hamster.
For data set [10] the following is noted: following oral administration; cited from earlier work.

Like-named read-outs stand apart in the source and are kept apart here. Bounds are passed on as bounds.

With `COc1ccc(N2C(=O)[C@H](CCCc3ccccc3)[C@H]2c2ccc(F)cc2)cc1` [compound 9], the “Ki Mouse NPC1L1” value on mouse NPC1L1 (Table 3, Mouse) is recorded as “In- active”. In data set [1], the “cholesterol lowering Liver” value is listed as “In- active” and the “cholesterol lowering Plasma” value was “In- active”. Moreover, in the data set with cholesterol, the “in vivo cholesterol lowering activity” value is “no in vivo cholesterol lowering activity”. Moreover, in [2], the NPC1L1 binding activity entry was “total loss”. The “Ki Rat NPC1L1” value at rat NPC1L1 (Table 3, Rat) is “In- active”. On human NPC1L1 (Table 3, Human), the “Ki Human NPC1L1” value is “In- active”. The “Ki Dog NPC1L1” value on canine NPC1L1 (Table 3, Dog) is recorded as “In- active”. Moreover, the “Ki Rabbit NPC1L1” value at rabbit NPC1L1 (Table 3, Rabbit) is given as “In- active”. Moreover, on hamster NPC1L1 (Table 3, Hamster), the “Ki Hamster NPC1L1” value is given as “In- active”. The “Ki Monkey NPC1L1” value at monkey NPC1L1 (Table 3, Monkey) was “In- active”. Besides, the “rat ED50, inhibition of cholesterol absorption” value in data set [3] is “In- active”.

With `O=C1[C@H](CC[C@H](O)c2ccc(F)cc2)[C@@H](c2ccc(O)cc2)N1c1ccc(F)cc1` [compound 3, ezetimibe], the 50% effective dose (ED50) in the data set with cholesterol absorption [4] is 0.03 mg/kg; in the data set with cholesterol absorption [5], 0.007 mg/kg; in the data set with cholesterol absorption [7], 0.7 mg/kg; in data set [3] (rat, read-out: rat ED50, inhibition of cholesterol absorption), 0.0016 mg/kg; in the data set with cholesterol absorption [8], 0.0005 mg/kg; with cholesterol absorption [9] it was 0.04 mg/kg. Further, the inhibitory constant (Ki) at mouse NPC1L1 (Mouse NPC1L1, competition with compound 2, read-out: Ki) was 5400 nM; on mouse NPC1L1 (Table 3, Mouse, read-out: Ki Mouse NPC1L1) it was 9000 nM; on rat NPC1L1 (Rat NPC1L1, competition with compound 1, read-out: Ki) it was 970 nM; on human NPC1L1 (Human NPC1L1, competition with compound 1, read-out: Ki) it was 2240 nM; on canine NPC1L1 (Canine NPC1L1, competition with compound 1, read-out: Ki), 770 nM; on canine NPC1L1 (Table 3, Dog, read-out: Ki Dog NPC1L1), 770 nM. Moreover, the inhibitory constant (Ki) turned out to be 2120 nM at rabbit NPC1L1 (Rabbit NPC1L1, competition with compound 1, read-out: Ki); 2100 nM at rabbit NPC1L1 (Table 3, Rabbit, read-out: Ki Rabbit NPC1L1); 1530 nM at hamster NPC1L1 (Hamster NPC1L1, competition with compound 1, read-out: Ki); 1530 nM on hamster NPC1L1 (Table 3, Hamster, read-out: Ki Hamster NPC1L1); 900 nM on monkey NPC1L1 (Monkey NPC1L1, competition with compound 1, read-out: Ki). Also, the “cholesterol lowering Liver” value in data set [1] was found to be 96%. For the same compound, the “cholesterol lowering Plasma” value in data set [1] came to 26%. In addition, the “fraction of compound in portal plasma that is the glucuronide compound 4” value in data set [6] was over 95%. Besides, the “fraction of ezetimibe glucuronidated” value in data set [10] is 90%.

The values above are taken from patent US8212016B2, “NPC1L1 orthologues” (Schering Corporation, priority 2006, dated 2012).
